According to patent US6821326B2 (Arch Chemicals, Inc., priority 2002, dated 2004):

Legend:
[1] = Particle size analysis on a Horiba Laser light scattering particle size analyzer; assay type: physicochemical; conditions: commercial powder before low shear mixing into xylene dispersion (Comparative Example A)
Protocol: As a comparison to the dispersions of the present invention, 13 grams “LAROFLEX MP25” polymer resin (vinyl chloride-isobutyl vinyl ether copolymer, a product of BASF Corporation, Charlotte, N.C.) was dissolved into 832 grams of xylene. […] The mixture was stirred at low speed (1000 rpm) and with low shear for 0.5 hours to provide adequate mixing until a homogenous mixture was achieved.
The diluted sample was then run though a Mini Zeta Netzsch mill for 150 minutes at 2000 rpm.

[2] = rats, powder, compared with zinc pyrithione powder; cited from earlier work

On1ccccc1=S.On1ccccc1=S.[Cu] [Copper Pyrithione, copper pyrithione]
Mean Particle Size [1]: 3.09 Microns | Median Particle Size [1]: 3.40 Microns | acute inhalation toxicity [2]: more toxic than zinc pyrithione powder
